Results as given in US20060216302A1, “Immunological markers” (priority 2003, published 2006).
Ends that are not written are not given here.

Assays:
Lewis rats = test: Antigenicity and cross-reactivity in rats inoculated with marker-KLH conjugates, serum ELISA (Example 7); format: in vivo, rat; details: for Candidate Marker Antibody Reactivity RBM1 / Candidate Marker Antibody Reactivity RBM2 / Candidate Marker Antibody Reactivity RBM4 / Candidate Marker Antibody Reactivity RBM5 / Candidate Marker Antibody Reactivity RBM6 / Candidate Marker Antibody Reactivity RBM7: Table 3; for Candidate Marker Antibody Reactivity RBM1: serum (1/100) of Lewis rats inoculated s.c. with 1.0 mg marker-KLH conjugate in Freund's incomplete adjuvant, day 14-21, ELISA wells coated with RBM1; for Candidate Marker Antibody Reactivity RBM2 / Candidate Marker Antibody Reactivity RBM4 / Candidate Marker Antibody Reactivity RBM5 / Candidate Marker Antibody Reactivity RBM6 / Candidate Marker Antibody Reactivity RBM7: serum (1/100) of Lewis rats inoculated with marker-KLH conjugate; for Candidate Marker Antibody Reactivity RBM2: ELISA wells coated with RBM2; for Candidate Marker Antibody Reactivity RBM4: ELISA wells coated with RBM4; for Candidate Marker Antibody Reactivity RBM5: ELISA wells coated with RBM5; for Candidate Marker Antibody Reactivity RBM6: ELISA wells coated with RBM6; for Candidate Marker Antibody Reactivity RBM7: ELISA wells coated with RBM7; for Relative Absorbance ±SE at 405 nm, Candidate Marker RBM1 / Relative Absorbance ±SE at 405 nm, Candidate Marker RBM4 / Relative Absorbance ±SE at 405 nm, Candidate Marker RBM5 / Relative Absorbance ±SE at 405 nm, Candidate Marker RBM6: Table 4, N = 3, rats inoculated with marker-KLH conjugate, ** P < .01; for Relative Absorbance ±SE at 405 nm, Candidate Marker RBM1: ELISA against RBM1; for Relative Absorbance ±SE at 405 nm, Candidate Marker RBM4: ELISA against RBM4; for Relative Absorbance ±SE at 405 nm, Candidate Marker RBM5: ELISA against RBM5; for Relative Absorbance ±SE at 405 nm, Candidate Marker RBM6: ELISA against RBM6; for Cross-reactivity among the candidate markers: text summary of Table 3, rat sera after marker-KLH inoculation
human sera = test: ELISA cross-reactivity of candidate markers with human sera (Example 9); details: human serum diluted 1/1000, goat anti-human-HRP, non-specific binding subtracted
Protocol: Four samples of human sera were obtained with appropriate consent. 20 The frozen samples of cell-free sera were thawed and diluted to 1/1000 in phosphate buffered saline at pH 7.0. Aliquots (100 ul) of these diluted antisera were added to ELISA plates pre-adsorbed with the biomarkers as described in Table 1. A goat anti-human-HRP secondary antibody was used to quantitate the amount of antibody bound to the various marker peptides. Non-specific binding (determined by plating antisera onto PVA coated wells) was subtracted from the readings of the individual marker wells.

rats = test: Antigenicity in rats inoculated with free marker peptides, serum ELISA (Example 8); format: in vivo, rat; details: Table 5; for Candidate Marker Antibody Reactivity RBM1: rats inoculated with 1 mg free peptide (not KLH-conjugated) in Freund's incomplete adjuvant, ELISA against RBM1; for Candidate Marker Antibody Reactivity RBM2 / Candidate Marker Antibody Reactivity RBM3 / Candidate Marker Antibody Reactivity RBM4 / Candidate Marker Antibody Reactivity RBM5 / Candidate Marker Antibody Reactivity RBM6 / Candidate Marker Antibody Reactivity RBM7: rats inoculated with free peptide; for Candidate Marker Antibody Reactivity RBM2: ELISA against RBM2; for Candidate Marker Antibody Reactivity RBM3: ELISA against RBM3; for Candidate Marker Antibody Reactivity RBM4: ELISA against RBM4; for Candidate Marker Antibody Reactivity RBM5: ELISA against RBM5; for Candidate Marker Antibody Reactivity RBM6: ELISA against RBM6; for Candidate Marker Antibody Reactivity RBM7: ELISA against RBM7; for Antigenicity (measurable antibody response) of free marker peptide / Interference and cross-reaction with other marker candidates: rats; for Antigenicity (measurable antibody response) of free marker peptide: free peptide not conjugated to KLH; for Interference and cross-reaction with other marker candidates: free peptide
[1] = system: polyclonal sera against a range of infectious agents and hormones; test: ELISA cross-reactivity screen, whole panel of antisera; format: binding; details: whole panel of 12 antisera

EGVYVPV [RBM5, peptide derived from the 5→3 reading of the cDNA encoding angiotensin II; T3 prints Glu-Gly-Val-Tyr-Val-His-Pro-Val]
Candidate Marker Antibody Reactivity RBM1 (Lewis rats): −.018
Candidate Marker Antibody Reactivity RBM2 (Lewis rats): .068
Candidate Marker Antibody Reactivity RBM4 (Lewis rats): −.231
Candidate Marker Antibody Reactivity RBM5 (Lewis rats): .101
Candidate Marker Antibody Reactivity RBM6 (Lewis rats): .006
Candidate Marker Antibody Reactivity RBM7 (Lewis rats): −.058
Relative Absorbance ±SE at 405 nm, Candidate Marker RBM1 (Lewis rats): .57 ± .25
Relative Absorbance ±SE at 405 nm, Candidate Marker RBM4 (Lewis rats): .15 ± .07
Relative Absorbance ±SE at 405 nm, Candidate Marker RBM5 (Lewis rats): 1.5 ± .44**
Relative Absorbance ±SE at 405 nm, Candidate Marker RBM6 (Lewis rats): .50 ± .02
Cross-reactivity among the candidate markers (Lewis rats): cross-react weakly, but consistently
Candidate Marker Antibody Reactivity, Serum Sample 1 (human sera): .22
Candidate Marker Antibody Reactivity, Serum Sample 2 (human sera): .21
Candidate Marker Antibody Reactivity, Serum Sample 3 (human sera): −.02
Candidate Marker Antibody Reactivity, Serum Sample 4 (human sera): −.01

HRNYFHRNYF [RBM2]
Candidate Marker Antibody Reactivity RBM1 (rats): −.02
Candidate Marker Antibody Reactivity RBM2 (rats): 3.34
Candidate Marker Antibody Reactivity RBM3 (rats): −.07
Candidate Marker Antibody Reactivity RBM4 (rats): −.01
Candidate Marker Antibody Reactivity RBM5 (rats): .05
Candidate Marker Antibody Reactivity RBM6 (rats): −.23
Candidate Marker Antibody Reactivity RBM7 (rats): −.05
Antigenicity (measurable antibody response) of free marker peptide (rats): sufficiently antigenic to produce a measurable and consistent antibody response
Interference and cross-reaction with other marker candidates (rats): did not interfere with each other's immune responses nor cross-react with other marker candidates
Candidate Marker Antibody Reactivity RBM1 (Lewis rats): .034
Candidate Marker Antibody Reactivity RBM2 (Lewis rats): .219
Candidate Marker Antibody Reactivity RBM4 (Lewis rats): −.037
Candidate Marker Antibody Reactivity RBM5 (Lewis rats): .041
Candidate Marker Antibody Reactivity RBM6 (Lewis rats): −.006
Candidate Marker Antibody Reactivity RBM7 (Lewis rats): .002
Cross-reactivity among the candidate markers (Lewis rats): cross-react weakly, but consistently
Candidate Marker Antibody Reactivity, Serum Sample 1 (human sera): .26
Candidate Marker Antibody Reactivity, Serum Sample 2 (human sera): .05
Candidate Marker Antibody Reactivity, Serum Sample 3 (human sera): .27
Candidate Marker Antibody Reactivity, Serum Sample 4 (human sera): −.01

HWRWRMRMHWRWRMRM [RBM6]
Candidate Marker Antibody Reactivity RBM1 (rats): −.07
Candidate Marker Antibody Reactivity RBM2 (rats): .39
Candidate Marker Antibody Reactivity RBM3 (rats): .02
Candidate Marker Antibody Reactivity RBM4 (rats): −.06
Candidate Marker Antibody Reactivity RBM5 (rats): .19
Candidate Marker Antibody Reactivity RBM6 (rats): −.01
Candidate Marker Antibody Reactivity RBM7 (rats): .12
Antigenicity (measurable antibody response) of free marker peptide (rats): failed to produce measurable immunity
Relative Absorbance ±SE at 405 nm, Candidate Marker RBM1 (Lewis rats): .12 ± .03
Relative Absorbance ±SE at 405 nm, Candidate Marker RBM4 (Lewis rats): .02 ± .04
Relative Absorbance ±SE at 405 nm, Candidate Marker RBM5 (Lewis rats): −07 ± .15
Relative Absorbance ±SE at 405 nm, Candidate Marker RBM6 (Lewis rats): .84 ± .13**
Candidate Marker Antibody Reactivity, Serum Sample 1 (human sera): .22
Candidate Marker Antibody Reactivity, Serum Sample 2 (human sera): .24
Candidate Marker Antibody Reactivity, Serum Sample 3 (human sera): −.09
Candidate Marker Antibody Reactivity, Serum Sample 4 (human sera): −.03

RLAHMYVGKT [RBM4, antisense peptide from angiotensin II complementary DNA, 3→5 direction; KLH conjugate for inoculation]
Candidate Marker Antibody Reactivity RBM1 (Lewis rats): −.009
Candidate Marker Antibody Reactivity RBM2 (Lewis rats): .020
Candidate Marker Antibody Reactivity RBM4 (Lewis rats): .079
Candidate Marker Antibody Reactivity RBM5 (Lewis rats): .003
Candidate Marker Antibody Reactivity RBM6 (Lewis rats): −.035
Candidate Marker Antibody Reactivity RBM7 (Lewis rats): −.030
Relative Absorbance ±SE at 405 nm, Candidate Marker RBM1 (Lewis rats): .21 ± .06
Relative Absorbance ±SE at 405 nm, Candidate Marker RBM4 (Lewis rats): 2.26 ± .40**
Relative Absorbance ±SE at 405 nm, Candidate Marker RBM5 (Lewis rats): .24 ± .23
Relative Absorbance ±SE at 405 nm, Candidate Marker RBM6 (Lewis rats): .32 ± .07
Candidate Marker Antibody Reactivity, Serum Sample 1 (human sera): .08
Candidate Marker Antibody Reactivity, Serum Sample 2 (human sera): .20
Candidate Marker Antibody Reactivity, Serum Sample 3 (human sera): −.16
Candidate Marker Antibody Reactivity, Serum Sample 4 (human sera): −.02
Recognition by any antiserum tested [1]: did not cross-react

WFYMYFWFYMYF [RBM3]
Candidate Marker Antibody Reactivity, Serum Sample 1 (human sera): .07
Candidate Marker Antibody Reactivity, Serum Sample 2 (human sera): .05
Candidate Marker Antibody Reactivity, Serum Sample 3 (human sera): −.07
Candidate Marker Antibody Reactivity, Serum Sample 4 (human sera): −.01

WPHDMCWP [RBM7]
Candidate Marker Antibody Reactivity RBM1 (rats): −.10
Candidate Marker Antibody Reactivity RBM2 (rats): .22
Candidate Marker Antibody Reactivity RBM3 (rats): −.06
Candidate Marker Antibody Reactivity RBM4 (rats): −.12
Candidate Marker Antibody Reactivity RBM5 (rats): .06
Candidate Marker Antibody Reactivity RBM6 (rats): −.10
Candidate Marker Antibody Reactivity RBM7 (rats): .63
Antigenicity (measurable antibody response) of free marker peptide (rats): sufficiently antigenic to produce a measurable and consistent antibody response
Interference and cross-reaction with other marker candidates (rats): did not interfere with each other's immune responses nor cross-react with other marker candidates
Candidate Marker Antibody Reactivity, Serum Sample 1 (human sera): −.11
Candidate Marker Antibody Reactivity, Serum Sample 2 (human sera): .00
Candidate Marker Antibody Reactivity, Serum Sample 3 (human sera): .04
Candidate Marker Antibody Reactivity, Serum Sample 4 (human sera): −.02

YFMYRRYFMYRR [RBM1]
Candidate Marker Antibody Reactivity RBM1 (rats): .00
Candidate Marker Antibody Reactivity RBM2 (rats): .20
Candidate Marker Antibody Reactivity RBM3 (rats): −.05
Candidate Marker Antibody Reactivity RBM4 (rats): −.04
Candidate Marker Antibody Reactivity RBM5 (rats): .1
Candidate Marker Antibody Reactivity RBM6 (rats): −.10
Candidate Marker Antibody Reactivity RBM7 (rats): .14
Antigenicity (measurable antibody response) of free marker peptide (rats): failed to produce measurable immunity
Relative Absorbance ±SE at 405 nm, Candidate Marker RBM1 (Lewis rats): .55 ± .15**
Relative Absorbance ±SE at 405 nm, Candidate Marker RBM4 (Lewis rats): −.11 ± .14
Relative Absorbance ±SE at 405 nm, Candidate Marker RBM5 (Lewis rats): .11 ± .05
Relative Absorbance ±SE at 405 nm, Candidate Marker RBM6 (Lewis rats): .05 ± .07
Candidate Marker Antibody Reactivity, Serum Sample 1 (human sera): .16
Candidate Marker Antibody Reactivity, Serum Sample 2 (human sera): .01
Candidate Marker Antibody Reactivity, Serum Sample 3 (human sera): .08
Candidate Marker Antibody Reactivity, Serum Sample 4 (human sera): .01
